Experimental data taken from publication PMC9516332 (Frontiers in Oncology, 2022).
Where two headings read alike, the source gives them in different places.

Experiments:
134 cancer cell lines [1] = tested on: 134 cancer cell lines
134 cancer cell lines [2] = experiment: Cell viability assay (ATPlite, 72 hours), IC50 on cancer cell line panel

For CC(=O)Nc1cccc(-n2c(=O)n(C3CC3)c(=O)c3c(Nc4ccc(I)cc4F)n(C)c(=O)c(C)c32)c1 [trametinib], the IC50 (134 cancer cell lines [1]) was 76 nM, the IC50 (134 cancer cell lines [2]; HEC-6, read-out: IC50 in cell proliferation assay, HEC-6 cell line (EGFR p.A289V)) was > 31600 nM and the IC50 (134 cancer cell lines [2]; Homo sapiens, 769-P, read-out: IC50 in cell proliferation assay, cell line 769-P) was 95 nM. It also gave an IC50 (134 cancer cell lines [2]; Homo sapiens, 786-0, read-out: IC50 in cell proliferation assay, cell line 786-O) of 42 nM, an IC50 (134 cancer cell lines [2]; Homo sapiens, A 172, read-out: IC50 in cell proliferation assay, cell line A-172) of 235 nM and an IC50 (134 cancer cell lines [2]; Homo sapiens, A204, read-out: IC50 in cell proliferation assay, cell line A-204) of 1230 nM. For the same compound, the IC50 (134 cancer cell lines [2]; Homo sapiens, A498, read-out: IC50 in cell proliferation assay, cell line A-498) was 13800 nM, the IC50 (134 cancer cell lines [2]; Homo sapiens, A549, read-out: IC50 in cell proliferation assay, cell line A-549) was 8 nM and the IC50 (134 cancer cell lines [2]; Homo sapiens, A704, read-out: IC50 in cell proliferation assay, cell line A-704) was > 28200 nM. For the same compound, the IC50 (134 cancer cell lines [2]; Homo sapiens, A-375, read-out: IC50 in cell proliferation assay, cell line A-375 (BRAF p.V600E)) was 5 nM, the IC50 (134 cancer cell lines [2]; Homo sapiens, A-427, read-out: IC50 in cell proliferation assay, cell line A-427) was 2.13 nM and the IC50 (134 cancer cell lines [2]; Homo sapiens, ACHN, read-out: IC50 in cell proliferation assay, cell line ACHN) was 6 nM. The IC50 (134 cancer cell lines [2]; Homo sapiens, AN3-CA, read-out: IC50 in cell proliferation assay, cell line AN3-CA (FGFR2 p.N549K)) was 50 nM, the IC50 (134 cancer cell lines [2]; Homo sapiens, ASPC1, read-out: IC50 in cell proliferation assay, cell line AsPC-1) was 14 nM and the IC50 (134 cancer cell lines [2]; Homo sapiens, AU565, read-out: IC50 in cell proliferation assay, cell line AU565 (ERBB2 amplification)) was > 28200 nM. The IC50 (134 cancer cell lines [2]; Homo sapiens, BT-20, read-out: IC50 in cell proliferation assay, cell line BT-20) was > 28200 nM, the IC50 (134 cancer cell lines [2]; Homo sapiens, BT-474, read-out: IC50 in cell proliferation assay, cell line BT-474 (ERBB2 amplification)) was > 31600 nM and the IC50 (134 cancer cell lines [2]; Homo sapiens, BT-549, read-out: IC50 in cell proliferation assay, cell line BT-549) was 314 nM. For the same compound, the IC50 (134 cancer cell lines [2]; Homo sapiens, BXPC-3, read-out: IC50 in cell proliferation assay, cell line BxPC-3) was 38 nM, the IC50 (134 cancer cell lines [2]; Homo sapiens, C-33-A, read-out: IC50 in cell proliferation assay, cell line C-33 A) was 4.42 nM and the IC50 (134 cancer cell lines [2]; Homo sapiens, CAL-27, read-out: IC50 in cell proliferation assay, cell line CAL-27) was 11 nM. The IC50 (134 cancer cell lines [2]; Homo sapiens, CCF-STTG1, read-out: IC50 in cell proliferation assay, cell line CCF-STTG1) was > 28200 nM, the IC50 (134 cancer cell lines [2]; Homo sapiens, CCRF-CEM, read-out: IC50 in cell proliferation assay, cell line CCRF-CEM) was > 28200 nM and the IC50 (134 cancer cell lines [2]; Homo sapiens, COLO 205, read-out: IC50 in cell proliferation assay, cell line COLO 205 (BRAF p.V600E)) was 4 nM. It also gave an IC50 (134 cancer cell lines [2]; Homo sapiens, COLO-829, read-out: IC50 in cell proliferation assay, cell line COLO 829 (BRAF p.V600E)) of 16 nM, an IC50 (134 cancer cell lines [2]; Homo sapiens, DLD-1, read-out: IC50 in cell proliferation assay, cell line DLD-1) of 507 nM and an IC50 (134 cancer cell lines [2]; Homo sapiens, DU-4475, read-out: IC50 in cell proliferation assay, cell line DU4475 (BRAF p.V600E)) of 10 nM. It also gave an IC50 (134 cancer cell lines [2]; Homo sapiens, Daoy, read-out: IC50 in cell proliferation assay, cell line Daoy) of 427 nM, an IC50 (134 cancer cell lines [2]; Homo sapiens, DoTc2-4510, read-out: IC50 in cell proliferation assay, cell line DoTc2 4510) of 8 nM and an IC50 (134 cancer cell lines [2]; Homo sapiens, EOL1, read-out: IC50 in cell proliferation assay, cell line EoL-1 (FIP1L1-PDGFRA)) of 8 nM. The IC50 (134 cancer cell lines [2]; Homo sapiens, FaDu, read-out: IC50 in cell proliferation assay, cell line FaDu) was 19 nM, the IC50 (134 cancer cell lines [2]; Homo sapiens, G-361, read-out: IC50 in cell proliferation assay, cell line G-361 (BRAF p.V600E)) was 5.46 nM and the IC50 (134 cancer cell lines [2]; Homo sapiens, HCC827, read-out: IC50 in cell proliferation assay, cell line HCC827 (EGFR exon19del)) was 151 nM. The IC50 (134 cancer cell lines [2]; Homo sapiens, HCC4006, read-out: IC50 in cell proliferation assay, cell line HCC4006 (EGFR exon19del)) was 808 nM, the IC50 (134 cancer cell lines [2]; Homo sapiens, HCT-15, read-out: IC50 in cell proliferation assay, cell line HCT 15) was 1740 nM and the IC50 (134 cancer cell lines [2]; Homo sapiens, HCT-116, read-out: IC50 in cell proliferation assay, cell line HCT 116) was 29 nM. The IC50 (134 cancer cell lines [2]; Homo sapiens, HEC-1, read-out: IC50 in cell proliferation assay, HEC-1 cell line) was 330 nM, the IC50 (134 cancer cell lines [2]; Homo sapiens, HEC-1B, read-out: IC50 in cell proliferation assay, HEC-1-B cell line (EGFR p.A864V)) was 6.36 nM and the IC50 (134 cancer cell lines [2]; Homo sapiens, HL-60, read-out: IC50 in cell proliferation assay, HL-60 cell line) was 1 nM. The IC50 (134 cancer cell lines [2]; Homo sapiens, HT, read-out: IC50 in cell proliferation assay, HT cell line) was > 28200 nM, the IC50 (134 cancer cell lines [2]; Homo sapiens, HT-1080, read-out: IC50 in cell proliferation assay, HT-1080 cell line) was 28 nM and the IC50 (134 cancer cell lines [2]; Homo sapiens, Hs746T, read-out: IC50 in cell proliferation assay, Hs 746.T cell line (MET exon14skip + amplification)) was 82 nM. The IC50 (134 cancer cell lines [2]; Homo sapiens, Hs-578T, read-out: IC50 in cell proliferation assay, Hs 578T cell line) was 211 nM, the IC50 (134 cancer cell lines [2]; Homo sapiens, HuTu80, read-out: IC50 in cell proliferation assay, HuTu 80 cell line) was 129 nM and the IC50 (134 cancer cell lines [2]; Homo sapiens, J82, read-out: IC50 in cell proliferation assay, J82 cell line) was > 28200 nM. For the same compound, the IC50 (134 cancer cell lines [2]; Homo sapiens, Jurkat E6.1, read-out: IC50 in cell proliferation assay, Jurkat E6.1 cell line) was > 28200 nM, the IC50 (134 cancer cell lines [2]; Homo sapiens, K562, read-out: IC50 in cell proliferation assay, K-562 cell line) was 22 nM and the IC50 (134 cancer cell lines [2]; Homo sapiens, KATO III, read-out: IC50 in cell proliferation assay, KATO III cell line (FGFR2 amplification)) was 142 nM. For the same compound, the IC50 (134 cancer cell lines [2]; Homo sapiens, KG-1, read-out: IC50 in cell proliferation assay, KG-1 cell line (FGFR1OP2-FGFR1)) was 9 nM, the IC50 (134 cancer cell lines [2]; Homo sapiens, KLE, read-out: IC50 in cell proliferation assay, KLE cell line) was > 28200 nM and the IC50 (134 cancer cell lines [2]; Homo sapiens, KMS-11, read-out: IC50 in cell proliferation assay, KMS-11 cell line (FGFR3 p.Y373C)) was > 31600 nM. The IC50 (134 cancer cell lines [2]; Homo sapiens, KU812, read-out: IC50 in cell proliferation assay, Ku812 cell line) was 13 nM, the IC50 (134 cancer cell lines [2]; Homo sapiens, Kasumi 1, read-out: IC50 in cell proliferation assay, Kasumi-1 cell line (KIT p.N822K)) was 29 nM and the IC50 (134 cancer cell lines [2]; Homo sapiens, LC-2-ad, read-out: IC50 in cell proliferation assay, LC-2/ad cell line (CCDC6-RET)) was 167 nM. For the same compound, the IC50 (134 cancer cell lines [2]; Homo sapiens, LNCaP-Clone-FGC, read-out: IC50 in cell proliferation assay, LNCaP clone FGC cell line) was > 28200 nM, the IC50 (134 cancer cell lines [2]; Homo sapiens, LS174T, read-out: IC50 in cell proliferation assay, LS174T cell line) was 30 nM and the IC50 (134 cancer cell lines [2]; Homo sapiens, LS-411N, read-out: IC50 in cell proliferation assay, LS411N cell line (BRAF p.V600E)) was 9 nM. For the same compound, the IC50 (134 cancer cell lines [2]; Homo sapiens, LoVo, read-out: IC50 in cell proliferation assay, LoVo cell line) was 32 nM, the IC50 (134 cancer cell lines [2]; Homo sapiens, MCF7, read-out: IC50 in cell proliferation assay, MCF-7 cell line) was > 28200 nM and the IC50 (134 cancer cell lines [2]; Homo sapiens, MDA-MB-231, read-out: IC50 in cell proliferation assay, MDA-MB-231 cell line) was 44 nM. It also gave an IC50 (134 cancer cell lines [2]; Homo sapiens, MDA-MB-453, read-out: IC50 in cell proliferation assay, MDA-MB-453 cell line) of 270 nM, an IC50 (134 cancer cell lines [2]; Homo sapiens, MDA-MB-468, read-out: IC50 in cell proliferation assay, MDA-MB-468 cell line) of 151 nM and an IC50 (134 cancer cell lines [2]; Homo sapiens, MG-63, read-out: IC50 in cell proliferation assay, MG-63 cell line) of 257 nM. It also gave an IC50 (134 cancer cell lines [2]; Homo sapiens, MIA PaCa-2, read-out: IC50 in cell proliferation assay, MIA PaCa-2 cell line) of 33 nM, an IC50 (134 cancer cell lines [2]; Homo sapiens, MKN-45, read-out: IC50 in cell proliferation assay, MKN45 cell line (MET amplification)) of 83 nM and an IC50 (134 cancer cell lines [2]; Homo sapiens, MOLM-13, read-out: IC50 in cell proliferation assay, MOLM-13 cell line (FLT3 ITD)) of 34 nM. It also gave an IC50 (134 cancer cell lines [2]; Homo sapiens, MOLT-4, read-out: IC50 in cell proliferation assay, MOLT-4 cell line) of 27600 nM.
